What all share (assay type): cell-based, human
One data set relates to FGF2. Put plainly: beta gal target cleavage assay, FGF2. The settings on record: pcDNA6/LacZ/FGF2; data not shown. The procedure:
(§1) Target cleavage assays using the miRNA targets from the bioinformatics analyses above were conducted. The 3′ UTR seed sequences of putative target genes were amplified by PCR (Phusion PCR kit, Finnzymes) from human Melanocyte genomic DNA (Primers: ARL2 For-ctcctccaccccagcctgc (SEQ ID NO 92), ARL2 Rev-[…] (SEQ ID NO 93); FGF2 For-[…] (SEQ ID NO 94), FGF2 Rev-[…] (SEQ ID NO 95); RAB22A For-[…] (SEQ ID NO 96), RAB22A Rev-[…] (SEQ ID NO 97); SLC37A3 For-[…] (SEQ ID NO 98), SLC37A3 Rev-[…] (SEQ ID NO 99); TCF12 For-[…] (SEQ ID NO 100), TCF12 Rev-[…] ((SEQ ID NO 101); all primer sets containing 5′ NotI and 3′ AgeI sites). PCR products were cloned into pCR4-TOPO (Invitrogen), confirmed by sequencing, then subcloned into the 3′ UTR of the LacZ gene in pcDNA6/V5-His/LacZ (Invitrogen) using the 5′ NotI and 3′ AgeI restriction sites, and reconfirmed by sequencing (pcDNA6/LacZ/ARL2, pcDNA6/LacZ/FGF2, pcDNA6/LacZ/RAB22A, pcDNA6/LacZ/SLC37A3, and pcDNA6/LacZ/TCF12, respectively). FIG. 11 is an example of the pcDNA6/LacZ construct used within these experiments. As shown, the FGF2 target sequence may be cloned into the 3′ UTR of the LacZ gene. […]

Another data set deals with TCF12. Put plainly: beta gal target cleavage assay, TCF12. Conditions: A375 cells, mimic co-transfected at 100 nM; Kruskal Wallis p-value<0.001. As to the method: Target cleavage assays using the miRNA targets from the bioinformatics analyses above were conducted. The 3' UTR seed sequences of putative target genes were amplified by PCR (Phusion PCR kit, Finnzymes) from human Melanocyte genomic DNA (Primers: ARL2 For-[NT] (SEQ ID NO 92), ARL2 Rev-[NT] (SEQ ID NO 93); FGF2 For-[NT] (SEQ ID NO 94), FGF2 Rev-[NT] (SEQ ID NO 95); RAB22A For-[NT] (SEQ ID NO 96), RAB22A Rev-[NT] (SEQ ID NO 97); SLC37A3 For-[NT] (SEQ ID NO 98), SLC37A3 Rev-[NT] (SEQ ID NO 99); TCF12 For-[NT] (SEQ ID NO 100), TCF12 Rev-[NT] ((SEQ ID NO 101); all primer sets containing [NT] AgeI sites). PCR products were cloned into pCR4-TOPO (Invitrogen), confirmed by sequencing, then subcloned into the 3' UTR of the LacZ gene in pcDNA6/[…]/LacZ (Invitrogen) using the [NT] AgeI restriction sites, and reconfirmed by sequencing (pcDNA6/LacZ/ARL2, pcDNA6/LacZ/FGF2, pcDNA6/LacZ/RAB22A, pcDNA6/LacZ/SLC37A3, and pcDNA6/LacZ/TCF12, respectively). FIG. 11 is an example of the pcDNA6/LacZ construct used within these experiments. As shown, the FGF2 target sequence may be cloned into the 3' UTR of the LacZ gene. A375 Melanoma cell lines were transfected in triplicate (Fugene 6, Roche) with 5 μg plasmid DNA of: […] Negative control sequence is based on cel-miR-67, mature sequence: […] been confirmed to have minimal sequence identity with miRNAs in human, mouse and rat or E) no mimic. […]

The next data set has as its system RAB22A. Put plainly: beta gal target cleavage assay, RAB22A. The settings on record: A375 cells, mimic co-transfected at 100 nM. As to the method:
as §1

Another data set deals with SLC37A3. Put plainly: beta gal target cleavage assay, SLC37A3. Conditions: A375 cells, mimic co-transfected at 100 nM. The procedure: as §1
Another data set deals with KCNMA1. Put plainly: beta gal target cleavage assay, KCNMA1.

In the case of “miR-16: miRIDIAN microRNA Mimic (Dharmacon) for miR-16, UAGCAGCACGUAAAUAUUGGCG (commercial miRIDIAN mimic, chemistry not given here; listed as Homo sapiens)”, the “targeting of FGF2 (target cleavage assay)” value in the data set on FGF2 is recorded as “confirmed”.

In the case of “miR-211: miRIDIAN microRNA Mimic (Dharmacon) for miR-211, UUCCCUUUGUCAUCCUUCGCCU (commercial miRIDIAN mimic, chemistry not given here; listed as Homo sapiens)”, in the data set on TCF12, the “beta-galactosidase activity, TCF-12 target construct” value was “statistically significant reduction in fold change”. Also, the “beta-galactosidase activity, RAB22A target construct” value in the data set on RAB22A is “decreased”. The “beta-galactosidase activity, SLC37A3 target construct” value with SLC37A3 was “decreased”. Also, the “target binding in KCNMA1 (beta gal target cleavage assay)” value in the data set with KCNMA1 is on record as “confirmed”.
